Test results taken from ChEMBL document CHEMBL1154985, “Discovery of a novel series of potent S1P1 agonists” (Bioorg Med Chem Lett, 2010).
Values after ≈ are worked out from the molar mass of the structure shown. Active and inactive are the calls of the source. The calls are words filed in the database; no cut-off is given here.

Key:
[1] = target: T1, Sphingosine 1-phosphate receptor 1 (Homo sapiens, UniProt P21453); test: Agonist activity at S1P1 receptor expressed in CHO cells after 60 mins by [35S]-GTPgammaS binding assay; assay type: functional, cell-based
[2] = Clearance in mouse; assay type: ADME, organism-based; conditions: in vivo
[3] = Intrinsic clearance in rat liver microsomes at 3 uM by LC/MS-MS analysis; assay type: ADME, Microsome
[4] = target: Sphingosine 1-phosphate receptor 3 (Homo sapiens, UniProt Q99500); test: Agonist activity at S1P3 receptor expressed in CHO cells after 60 mins by [35S]-GTPgammaS binding assay; assay type: functional, cell-based
[5] = Apparent permeability across human Caco-2 cells by LC/MS-MS analysis; assay type: ADME, cell-based
[6] = Solubility in PBS by nephelometry; assay type: physicochemical
[7] = Intrinsic clearance in human liver microsomes at 3 uM by LC/MS-MS analysis; assay type: ADME, Microsome
[8] = target: Sphingosine 1-phosphate receptor 5 (Homo sapiens, UniProt Q9H228); test: Agonist activity at S1P5 receptor expressed in CHO cells after 60 mins by [35S]-GTPgammaS binding assay; assay type: functional, cell-based
[9] = Lipophilicity, log P of the compound; assay type: physicochemical; conditions: octanol/water
[10] = Lipophilicity, log D at pH 7.4; assay type: physicochemical; conditions: buffer
[11] = target: T1, Sphingosine 1-phosphate receptor 1; test: Agonist activity at S1P1 receptor expressed in human U20S cells assessed as receptor internalization by green fluorescent protein reporter gene assay; assay type: functional, cell-based, U2OS
Mus musculus [12] = test: Reduction of lymphopenia in mouse assessed as effect on platelets at 30 mg/kg, po after 4 hrs; assay type: functional, organism-based; set-up: dose 30 mg/kg
Mus musculus [13] = test: Reduction of lymphopenia in mouse assessed as effect on erythrocytes at 30 mg/kg, po after 4 hrs; assay type: functional, organism-based; set-up: dose 30 mg/kg
Mus musculus [14] = test: Reduction of S1P1-mediated lymphopenia in mouse assessed as blood lymphocyte depletion at 30 mg/kg, po after 4 hrs; assay type: functional; set-up: scale not given: the % may be the effect or the level left

T1 sequence (P21453 whole entry): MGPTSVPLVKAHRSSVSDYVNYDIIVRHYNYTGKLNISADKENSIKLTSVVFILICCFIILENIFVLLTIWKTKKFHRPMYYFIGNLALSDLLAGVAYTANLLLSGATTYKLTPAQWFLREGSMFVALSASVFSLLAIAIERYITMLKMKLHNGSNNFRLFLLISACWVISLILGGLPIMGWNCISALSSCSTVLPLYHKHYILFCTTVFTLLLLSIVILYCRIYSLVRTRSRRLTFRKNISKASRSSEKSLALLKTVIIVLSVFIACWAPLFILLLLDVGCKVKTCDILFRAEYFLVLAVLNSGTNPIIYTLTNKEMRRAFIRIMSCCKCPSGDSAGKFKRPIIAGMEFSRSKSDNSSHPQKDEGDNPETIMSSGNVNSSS
Sphingosine 1-phosphate receptor 3, sequence (Q99500 whole entry): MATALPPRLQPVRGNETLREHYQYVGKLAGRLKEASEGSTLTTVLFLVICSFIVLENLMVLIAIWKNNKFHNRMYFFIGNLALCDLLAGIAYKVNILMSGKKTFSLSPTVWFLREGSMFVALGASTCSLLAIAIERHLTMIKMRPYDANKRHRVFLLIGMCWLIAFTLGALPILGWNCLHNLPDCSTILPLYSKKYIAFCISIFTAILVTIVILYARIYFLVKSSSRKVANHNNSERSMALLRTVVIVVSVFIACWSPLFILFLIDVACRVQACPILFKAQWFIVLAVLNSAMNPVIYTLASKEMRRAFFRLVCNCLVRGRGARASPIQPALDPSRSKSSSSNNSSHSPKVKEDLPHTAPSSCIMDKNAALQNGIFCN
Sphingosine 1-phosphate receptor 5, sequence (Q9H228 whole entry): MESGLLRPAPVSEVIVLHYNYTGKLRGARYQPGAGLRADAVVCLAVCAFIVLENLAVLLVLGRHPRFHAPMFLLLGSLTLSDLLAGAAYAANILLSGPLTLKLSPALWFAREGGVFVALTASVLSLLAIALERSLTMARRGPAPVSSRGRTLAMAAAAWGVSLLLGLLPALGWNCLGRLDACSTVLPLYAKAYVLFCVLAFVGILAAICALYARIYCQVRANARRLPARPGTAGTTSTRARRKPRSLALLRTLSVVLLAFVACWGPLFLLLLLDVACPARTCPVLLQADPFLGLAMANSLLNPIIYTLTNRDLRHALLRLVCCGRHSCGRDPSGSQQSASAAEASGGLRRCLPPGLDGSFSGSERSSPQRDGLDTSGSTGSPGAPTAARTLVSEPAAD

O=C(Nc1ccc2[nH]ccc2c1)c1cc(NC2CCCCC2)ncn1
EC50 [1]: 12100 nM

Cc1cc(O)ccc1NC(=O)c1cc(NC2CCCCC2)ncn1
clearance [2]: 80.8 mL/min/kg | microsomal CLint at 3 µM [3]: 18 µL/min/mg | EC50 [4]: > 30000 nM | Papp [5]: 21.8 ×10⁻⁶ cm/s | solubility kinetic [6]: > 32 µg/mL | microsomal CLint at 3 µM [7]: 2 µL/min/mg | EC50 [8]: 258 nM | logP [9]: 4.1

NS(=O)(=O)c1ccc(NC(=O)c2cc(NC3CCCCC3)ncn2)cc1
clearance [2]: 5 mL/min/kg

Cc1cc(S(N)(=O)=O)ccc1NC(=O)c1cc(NC2CCCCC2)ncn1
microsomal CLint at 3 µM [3]: 15 µL/min/mg | EC50 [4]: > 30000 nM | Papp [5]: 12.5 ×10⁻⁶ cm/s | solubility kinetic [6]: 5 µg/mL (≈ 12.8 µM) | microsomal CLint at 3 µM [7]: 43 µL/min/mg | logP [9]: 3.6

O=C(O)CCNCc1ccc(NC(=O)c2cc(N(CC3CC3)C3CCCCC3)ncn2)cc1
microsomal CLint at 3 µM [3]: < 10 µL/min/mg | EC50 [4]: 1090 nM | Papp [5]: 0.8 ×10⁻⁶ cm/s | solubility kinetic [6]: > 45 µg/mL | microsomal CLint at 3 µM [7]: < 10 µL/min/mg | EC50 [8]: 6.3 nM

Cc1cc(S(N)(=O)=O)ccc1NC(=O)c1cc(N(CC2CC2)C2CCCCC2)ncn1
microsomal CLint at 3 µM [3]: 14 µL/min/mg | EC50 [4]: > 30000 nM | solubility kinetic [6]: 1 µg/mL (≈ 2.25 µM) | microsomal CLint at 3 µM [7]: 130 µL/min/mg | EC50 [1]: 1.6 nM | EC50 [8]: 96 nM | logP [9]: 5.7

CN(c1cc(C(=O)Nc2ccc3[nH]nnc3c2)ncn1)C1CCCCC1
EC50 [1]: 7300 nM

O=C(Nc1ccc(F)cc1F)c1cc(NC2CCCCC2)ncn1
EC50 [1]: > 20000 nM

Cc1cc(CN2CC(C(=O)O)C2)ccc1NC(=O)c1cc(N(CC2CC2)C2CCCCC2)ncn1
microsomal CLint at 3 µM [3]: < 10 µL/min/mg | logD [10]: > 2.7 | EC50 [4]: 236 nM | Papp [5]: 2.4 ×10⁻⁶ cm/s | solubility kinetic [6]: 22 µg/mL (≈ 46.1 µM) | microsomal CLint at 3 µM [7]: < 10 µL/min/mg | EC50 [11]: 3 nM | EC50 [1]: 3 nM | EC50 [8]: 0.6 nM

Cc1cc(O)ccc1NC(=O)c1cc(N(CC2CC2)C2CCCCC2)ncn1
microsomal CLint at 3 µM [3]: 52 µL/min/mg | EC50 [4]: > 30000 nM | solubility kinetic [6]: 8 µg/mL (≈ 21 µM) | microsomal CLint at 3 µM [7]: 22 µL/min/mg | EC50 [8]: 191 nM | logP [9]: 7.4

CCN(c1cc(C(=O)Nc2ccc(O)cc2C)ncn1)C1CCCCC1
EC50 [1]: 405 nM

CNS(=O)(=O)c1ccc(NC(=O)c2cc(N(CC3CC3)C3CCCCC3)ncn2)c(C)c1
EC50 [1]: 6 nM

CC(=O)Nc1ccc(NC(=O)c2cc(NC3CCCCC3)ncn2)cc1
EC50 [1]: > 20000 nM

Cc1cc2[nH]ncc2cc1NC(=O)c1cc(N(CC2CC2)C2CCCCC2)ncn1
microsomal CLint at 3 µM [3]: 26 µL/min/mg | Papp [5]: 0.1 ×10⁻⁶ cm/s | solubility kinetic [6]: 5 µg/mL (≈ 12.4 µM) | microsomal CLint at 3 µM [7]: < 10 µL/min/mg | logP [9]: 6.1

Cc1cc(O)ccc1NC(=O)c1cc(NC2CC2)ncn1
EC50 [1]: > 20000 nM

COc1ccc(NC(=O)c2cc(NC3CCCCC3)ncn2)cc1
EC50 [1]: > 20000 nM

O=C(Nc1ccc(O)cc1)c1cc(NC2CCCCC2)ncn1
EC50 [4]: > 30000 nM

CN(c1ccccc1)c1cc(C(=O)Nc2ccc(O)cc2)ncn1
EC50 [1]: > 20000 nM

Cc1cc(O)ccc1NC(=O)c1cc(NC(C)(C)C)ncn1
EC50 [1]: > 20000 nM

CCCN(CC1CC1)c1cc(C(=O)Nc2ccc3[nH]ncc3c2)ncn1
microsomal CLint at 3 µM [3]: 57 µL/min/mg | Activity (Mus musculus [12]): inactive | Activity (Mus musculus [13]): inactive | Activity (Mus musculus [14]): 72% | Papp [5]: 8.5 ×10⁻⁶ cm/s | solubility kinetic [6]: 11 µg/mL (≈ 31.4 µM) | microsomal CLint at 3 µM [7]: 17 µL/min/mg | EC50 [11]: 12 nM | EC50 [8]: 142 nM | logP [9]: 4.6

CCCN(CCC)c1cc(C(=O)Nc2ccc(O)cc2)ncn1
microsomal CLint at 3 µM [3]: 7 µL/min/mg | Papp [5]: 21.4 ×10⁻⁶ cm/s | solubility kinetic [6]: 16 µg/mL (≈ 50.9 µM) | microsomal CLint at 3 µM [7]: 4 µL/min/mg | EC50 [1]: 375 nM

O=C(Nc1ccc(CO)cc1)c1cc(NC2CCCCC2)ncn1
EC50 [1]: > 20000 nM

Cc1cc(S(=O)(=O)NCCC(=O)O)ccc1NC(=O)c1cc(N(CC2CC2)C2CCCCC2)ncn1
microsomal CLint at 3 µM [3]: 25 µL/min/mg | Papp [5]: 2 ×10⁻⁶ cm/s | solubility kinetic [6]: > 51 µg/mL | microsomal CLint at 3 µM [7]: 25 µL/min/mg | EC50 [8]: 114 nM
